Like-named read-outs stand apart in the source and are kept apart here. Values belong to the compound of their own block, whether it stands above or below them.
Experiments:
[1] = test system: estrogen synthesis (ovarian estradiol, estrone, estriol); assay: Estrogen Synthesis Inhibition in Rats: ovarian steroid concentration after [3H]-testosterone; format: in vivo, immature female Wistar rats; settings: 7 days
Protocol: Test compounds were administered for seven days as a component of the diet. Control animals received diet without the test compound. Beginning on the fourth day of the test, all animals treated with the test compound and one half of the control animals were given a subcutaneous injection of 1.0 mg of testosterone propionate in corn oil. The remaining control animals received only an equivalent volume of corn oil.
The ovarian steroids were extracted with 1.5 ml of 9:1 (v/v) toluene/ethanol to which had been added 25 to 100 mcg each of unlabelled estradiol, estriol, and estrone, and approximately 1000 dpm of [^14 C]-estradiol. The samples were vortexed, centrifuged at 500×g for 10 minutes, and the organic phase was transferred to a conical vial. Two additional extractions were performed on the residue in the same way. The pooled organic extracts were evaporated for subsequent thin-layer chromatography.
Ovarian proteins were precipitated by the addition of 5.0 ml of ethanol to the remaining aqueous phase. After an overnight incubation at 4° C., the samples were centrifuged at 1500×g for 10 minutes. The supernatant was discarded and the pellet was dissolved in 0.3N potassium hydroxide.
The organic residue from each above extraction was redissolved in 9:1 (v/v) dichloromethane/methanol. The solution of each sample was applied to separate silica gel thin layer chromatography plates which contained a fluorescent indicator. The plates were developed in the first dimension with 160:38:1.5:0.5 (v/v/v/v) dichloromethane/ethyl acetate/methanol/acetic acid to within 3 cm of the top of the plate. After air-drying, the plate was developed in the second dimension with 180:19:1 (v/v/v) dichloromethane/methanol/ammonium hydroxide.
The spots were scraped from the plate using a glass wool plugged Pasteur pipet attached to a vacuum line. The steroids were eluted directly into scintillation vials by the addition of 0.2 ml of dichloromethane followed by two washes each of 2.0 ml of methanol. The organic solvent was evaporated and 10.0 ml of scintillation fluid (Beckman Ready Solv-NA) was added to the vials. Samples were analyzed by liquid scintillation spectrometry. Corrections were made based on the recoveries of the [^14 C]-steroid. Steroid concentrations are expressed as femtomoles per milligram protein.

[2] = test system: estrogen synthesis (aromatization); uterus; assay: Estrogen Synthesis Inhibition in Rats: uterine weight of testosterone propionate-treated immature rats; format: in vivo, immature female Wistar rats; settings: 7 days
Protocol: Immature female Wistar rats (45-55 grams) were divided into control and test groups of 2-8 animals each. Test compounds were administered for seven days as a component of the diet. Control animals received diet without the test compound. Beginning on the fourth day of the test, all animals treated with the test compound and one half of the control animals were given a subcutaneous injection of 1.0 mg of testosterone propionate in corn oil. The remaining control animals received only an equivalent volume of corn oil. On the seventh day of the test, rats treated with testosterone propionate were injected subcutaneously with 100 μCi of [^3 H]-testosterone in 50 μl of 3:1 (v/v) saline-ethanol.
After two hours, the animals were killed by decapitation. Uteri were isolated, trimmed of extraneous connective tissue, and weighed. […] In the control animals treated with testosterone propionate, estrogens produced by aromatization stimulated the uterus resulting in an increase in weight.
*ppm in feed. 300 ppm corresponds to approximately 30 mg/kg/day; 200 ppm
corresponds to approximately 20 mg/kg/day; 30 ppm corresponds to
approximately 3 mg/kg/day.

[3] = test system: DMBA-induced mammary tumors; assay: DMBA-induced Mammary Tumor Inhibition; format: in vivo, female Sprague-Dawley rats; settings: Test I, 300 ppm in diet (approx. 30 mg/kg/day), 5 weeks
Protocol: Mammary tumors were produced in female Sprague-Dawley rats which were 50-60 days old by the gavage administration of 20 mg of 7,12-dimethylbenz[a]anthracene (DMBA). About six weeks after DMBA administration, the mammary glands were palpated at weekly intervals for the appearance of tumors. Whenever one or more tumors appeared and were measurable in an animal, that animal was selected for experimentation. […] Each control and test group contained 8 animals. The test compound was administered mixed into the food at a concentration of 300 ppm (corresponding to an appropriate daily dose of 30 mg/kg). Every experiment included a group of control rats having tumors and were given food without the compound admixed. […] The area of each tumor was calculated by multiplying the shortest and longest diameters of the tumor. The treatment and measurement of animals continued for 4-5 weeks at which time the final areas of the tumors were determined. For each compound (and control) at each dose level, the change in the mean tumor area was determined.
*dosed in the diet. 300 ppm corresponds to approximately 30 mg/kg/day.

aromatase = target: T1, aromatase (Rattus norvegicus, UniProt P22443); assay: biochemical
T1 sequence (P22443 1-508): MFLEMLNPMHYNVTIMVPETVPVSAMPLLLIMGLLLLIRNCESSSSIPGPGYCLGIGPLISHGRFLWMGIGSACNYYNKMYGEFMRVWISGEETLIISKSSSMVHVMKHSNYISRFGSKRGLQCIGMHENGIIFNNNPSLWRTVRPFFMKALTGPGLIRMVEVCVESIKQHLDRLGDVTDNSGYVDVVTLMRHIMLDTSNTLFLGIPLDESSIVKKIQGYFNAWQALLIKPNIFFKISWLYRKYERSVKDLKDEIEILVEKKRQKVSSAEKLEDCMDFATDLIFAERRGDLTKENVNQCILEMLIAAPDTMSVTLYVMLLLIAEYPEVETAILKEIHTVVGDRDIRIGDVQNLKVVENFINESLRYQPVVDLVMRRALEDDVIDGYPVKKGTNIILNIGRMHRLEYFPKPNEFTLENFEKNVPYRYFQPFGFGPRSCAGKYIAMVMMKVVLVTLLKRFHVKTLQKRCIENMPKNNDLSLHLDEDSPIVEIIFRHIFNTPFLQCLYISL
Protocol: In this test system, ovarian microsomes are obtained from rats treated with pregnant mares serum gonadotropin. Test compounds are added to reaction vials containing 0.1 μM 4-androstene-3,17-dione, 100,000 dpm 1,2[^3 H]-androstenedione, the microsomes and a NADPH generating system. The concentrations of the inhibitors tested ranged between 0.005 and 10 μM.

[4] = rat ovarian microsomes, substrate (androstenedione) 0.1 μM
[5] = Test IV, 200 ppm in feed (approx. 20 mg/kg/day), testosterone-treated control 0.14
[6] = Test IV, 200 ppm in feed (approx. 20 mg/kg/day), testosterone-treated control 0.24
[7] = Test IV, 200 ppm in feed (approx. 20 mg/kg/day), testosterone-treated control 1.98
[8] = Test IV, 200 ppm in feed (approx. 20 mg/kg/day), testosterone-treated control 213.5

Structure (SMILES): Fc1ccc(N(Cc2cccnc2)C2=NCCS2)c(F)c1 [N--(2,4-difluorophenyl)-N--(4,5-dihydro-2-thiazolyl)-3-pyridinemethanamine]
Mean Steroid Concentration, estrone ([1]; Test II, 30 ppm in feed (approx. 3 mg/kg/day), testosterone-treated control 0.64): 0.65 femtomoles per milligram of protein | Mean Steroid Concentration, estriol ([1]; Test II, 30 ppm in feed (approx. 3 mg/kg/day), testosterone-treated control 1.98): 1.56 femtomoles per milligram of protein | Mean Steroid Concentration, estradiol ([1]; Test II, 30 ppm in feed (approx. 3 mg/kg/day), testosterone-treated control 2.07): 1.27 femtomoles per milligram of protein | Mean Steroid Concentration, estriol ([1]; Test II, 300 ppm in feed (approx. 30 mg/kg/day), testosterone-treated control 1.98): 1.18 femtomoles per milligram of protein | Mean Steroid Concentration, estrone ([1]; Test II, 300 ppm in feed (approx. 30 mg/kg/day), value marked + (p < 0.05 vs testosterone-treated control, 0.64)): 0.31 femtomoles per milligram of protein | Mean Steroid Concentration, estradiol ([1]; Test II, 300 ppm in feed (approx. 30 mg/kg/day), value marked + (p < 0.05 vs testosterone-treated control, 2.07)): 1.05 femtomoles per milligram of protein | Mean Uterine Weight ([2]; Test II, 30 ppm in feed (approx. 3 mg/kg/day), testosterone-treated control 176.7): 140.0 mg | Mean Uterine Weight ([2]; Test II, 300 ppm in feed (approx. 30 mg/kg/day), value marked + (p < 0.05 vs testosterone-treated control, 176.7)): 104.5 mg | Mean Tumor Area, Start ([3]; baseline, control 73.9): 83.6 mm^2 | Mean Tumor Area, Finish ([3]; control 1140.0): 536.0 mm^2 | EC50 (aromatase; [4]): 28 nM

Structure (SMILES): Clc1ccc(CN(Cc2cccnc2)C2=NCCS2)c(Cl)c1 [N--(4,5-dihydro-2-thiazolyl)-N--(2,4-dichlorobenzyl)-3-pyridinemethanamine]
EC50 (aromatase): 118 nM

Structure (SMILES): Brc1ccc(N(Cc2cccnc2)C2=NCCS2)cc1 [N--(4,5-dihydro-2-thiazolyl)-N--(4-bromophenyl)-3-pyridinemethanamine]
EC50 (aromatase): 110 nM

Structure (SMILES): CC(c1ccc(F)cc1)N(C1=NCCS1)C(C)c1cccnc1 (stereo not drawn) [N--(4,5-dihydro-2-thiazolyl)-N--[1-(4-fluorophenyl)ethyl]-α-methyl-3-pyridinemethanamine]
EC50 (aromatase): 3300 nM

EC50 (aromatase; [4]): 900 nM
Structure (SMILES): Clc1ccc(CCN(Cc2cccnc2)C2=NCCS2)cc1 [N--(4,5-dihydro-2-thiazolyl)-N--[2-(4-chlorophenyl)ethyl]-3-pyridinemethanamine]

EC50 (aromatase; [4]): 3200 nM
Structure (SMILES): CSc1ccc(N(Cc2cccnc2)C2=NCCS2)cc1 [N--(4,5-dihydro-2-thiazolyl)-N--[4-(methylthio)phenyl]-3-pyridinemethanamine]

Structure (SMILES): c1ccc(N(Cc2cccnc2)C2=NCCS2)cc1 [N--(4,5-dihydro-2-thiazolyl)-N--phenyl-3-pyridinemethanamine]
EC50 (aromatase): 460 nM

EC50 (aromatase; [4]): 440 nM
Structure (SMILES): Cc1cc(Cl)ccc1N(Cc1cccnc1)C1=NCCS1 [N--(4-chloro-2-methylphenyl)-N--(4,5-dihydro-2-thiazolyl)-3-pyridinemethanamine]

Structure (SMILES): Clc1ccc(N(Cc2cccnc2)C2=NCCCS2)cc1 [N--(4-chlorophenyl)-5,6-dihydro-N--(3-pyridylmethyl)-4H--1,3-thiazin-2-amine]
Mean Steroid Concentration, estriol [1, 5]: 0.04 femtomoles per milligram of protein | Mean Steroid Concentration, estrone [1, 6]: 0.11 femtomoles per milligram of protein | Mean Steroid Concentration, estradiol [1, 7]: 1.54 femtomoles per milligram of protein | Mean Uterine Weight [2, 8]: 193.0 mg | EC50 (aromatase): 72 nM

Structure (SMILES): Clc1ccc(N(Cc2cccnc2)C2=NCCO2)cc1 [N--(4-chlorophenyl)-N--(4,5-dihydro-2-oxazolyl)-3-pyridinemethanamine]
EC50 (aromatase): 80 nM

Structure (SMILES): Clc1ccc(N(Cc2cnccn2)C2=NCCS2)cc1 [N--(4-chlorophenyl)-N--(4,5-dihydro-2-thiazolyl)-2-pyrazinemethanamine]
EC50 (aromatase): 3130 nM

Structure (SMILES): Clc1ccc(N(Cc2cncnc2)C2=NCCS2)cc1 [N--(4-chlorophenyl)-N--(4,5-dihydro-2-thiazolyl)-5-pyrimidinemethanamine]
EC50 (aromatase): 610 nM

EC50 (aromatase; [4]): 2350 nM
Structure (SMILES): CC(c1cccnc1)N(C1=NCCS1)c1ccc(Cl)cc1 (stereo not drawn) [N--(4-chlorophenyl)-N--(4,5-dihydro-2-thiazolyl)-α-methyl-3-pyridinemethanamine]

Structure (SMILES): CC1CSC(N(Cc2cccnc2)c2ccc(Cl)cc2)=N1 (centres unmarked) [N--(4-chlorophenyl)-N--(4,5-dihydro-4-methyl-2-thiazolyl)-3-pyridinemethanamine]
Mean Steroid Concentration, estrone ([1]; Test III, 30 ppm in feed (approx. 3 mg/kg/day), testosterone-treated control 1.02): 1.14 femtomoles per milligram of protein | Mean Steroid Concentration, estradiol ([1]; Test III, 30 ppm in feed (approx. 3 mg/kg/day), testosterone-treated control 1.31): 2.40 femtomoles per milligram of protein | Mean Steroid Concentration, estriol ([1]; Test III, 30 ppm in feed (approx. 3 mg/kg/day), testosterone-treated control 1.32): 1.56 femtomoles per milligram of protein | Mean Steroid Concentration, estrone ([1]; Test III, 300 ppm in feed (approx. 30 mg/kg/day), testosterone-treated control 1.02): 0.62 femtomoles per milligram of protein | Mean Steroid Concentration, estradiol ([1]; Test III, 300 ppm in feed (approx. 30 mg/kg/day), testosterone-treated control 1.31): 0.95 femtomoles per milligram of protein | Mean Steroid Concentration, estriol ([1]; Test III, 300 ppm in feed (approx. 30 mg/kg/day), testosterone-treated control 1.32): 0.37 femtomoles per milligram of protein | Mean Uterine Weight ([2]; Test III, 30 ppm in feed (approx. 3 mg/kg/day), testosterone-treated control 220.0): 225.5 mg | Mean Uterine Weight ([2]; Test III, 300 ppm in feed (approx. 30 mg/kg/day), testosterone-treated control 220.0): 187.6 mg

EC50 (aromatase; [4]): 1950 nM
Structure (SMILES): CC1CSC(N(c2ccc(Cl)cc2)C(C)c2cccnc2)=N1 (stereo not drawn) [N--(4-chlorophenyl)-N--(4,5-dihydro-4-methyl-2-thiazolyl)-α-methyl-3-pyridinemethanamine]

Structure (SMILES): CC(c1ccc(Cl)cc1)N(Cc1cccnc1)C1=NCCS1 (centres unmarked) [N--[1-(4-chlorophenyl)ethyl]-N--(4,5-dihydro-2-thiazolyl)-3-pyridinemethanamine]
Mean Steroid Concentration, estriol [1, 5]: 0.04 femtomoles per milligram of protein | Mean Steroid Concentration, estrone [1, 6]: 0.13 femtomoles per milligram of protein | Mean Steroid Concentration, estradiol [1, 7]: 1.01 femtomoles per milligram of protein | Mean Uterine Weight [2, 8]: 185.8 mg | EC50 (aromatase): 48 nM
